Earlier results in article PMC4629263 (Acta Pharmaceutica Sinica. B, 2015).

What was measured:
[1] = room temperature
[2] = mice

| SMILES | Stability in aqueous solution [1] | pKa | LD50 [2] |
| --- | --- | --- | --- |
| COc1cc(N)c2c(c1O)-c1c(OC)c(OC)cc3c1[C@H](C2)N(C)CC3 [8-amino-isocorydine] | not stable | – | – |
| COc1ccc2c(c1O)-c1c(OC)c(OC)cc3c1[C@H](C2)N(C)CC3 [ICD, Isocorydine] | – | 7.16 | 32.2 mg/kg |
